Data taken from publication PMC12801355, “Peptide Amphiphiles Hitchhike on Endogenous Biomolecules for Enhanced Cancer Imaging and Therapy” (Advanced Materials (Deerfield Beach, Fla.), 2025).
Where a SMILES comes first, the peptide text is derived from it. The star is where a group is joined. Palmitoyl = CCCCCCCCCCCCCCCC(=O)*

Key:
[1] = Fluorescence polarization of PA nanostructures; type: physicochemical; conditions: 10 mol% ICG conjugated PA (20 µM) with unconjugated PA, 200 µM total, PBS; mean ± SEM, 3 wells
Description: ICG (10 mol%) containing PA micelles were prepared by mixing ICG‐conjugated PAs with unconjugated or MMAE‐conjugated PAs to achieve a final concentration of 20 µM ICG‐conjugated PAs and 200 µM of total PAs. Aliquots of 100 µL were added to a 96‐well plate (3 wells for each PA). Fluorescence polarization measurements were performed using a microplate reader (TECAN Spark 20 M). The corrected parallel intensity (I par) and perpendicular intensity (Iper) were used to calculate the fluorescence anisotropy (r) using the following equation: r = […].

[2] = TEM imaging of PA nanostructures; type: physicochemical; conditions: ICG conjugated PA, 200 µM in ultrapure water, uranyl acetate negative stain
Description: For TEM imaging, PAs conjugated with ICG, Cy5 or MMAE were dissolved in ultrapure water at a concentration of 200 µM. Carbonfilm 200 copper mesh TEM grids were glow‐discharged first. Then, PA solutions (15 µL) were placed on the grids, incubated for 10 min before blotting, and air‐dried. 15 µL of ultrapure water was applied to wash the grid for 3 min. After incubation, the water was removed by blotting from the edge of the grid. For negative staining of the samples, a 0.4% uranyl acetate solution was prepared in ultrapure water and filtered using a 0.1 µm syringe filter. 15 µL of filtered uranyl acetate solution was applied to the grid and incubated for 5 min. Finally, TEM grids were blotted to remove excess stain and dried at room temperature. TEM imaging was performed using a Tecnai or Talos microscope (FEI).

[3] = target: T1, human plasma proteins (Homo sapiens, UniProt P02647); experiment: Mass spectrometry of proteins pulled down with biotinylated SA‐E (SA‐Eb) from human plasma; type: binding
T1 construct: incubated with 50% pooled human plasma at 37 °C for 2 h; from tissue; host or cells: pooled human plasma (50%)
T1 sequence (P02647 19-267): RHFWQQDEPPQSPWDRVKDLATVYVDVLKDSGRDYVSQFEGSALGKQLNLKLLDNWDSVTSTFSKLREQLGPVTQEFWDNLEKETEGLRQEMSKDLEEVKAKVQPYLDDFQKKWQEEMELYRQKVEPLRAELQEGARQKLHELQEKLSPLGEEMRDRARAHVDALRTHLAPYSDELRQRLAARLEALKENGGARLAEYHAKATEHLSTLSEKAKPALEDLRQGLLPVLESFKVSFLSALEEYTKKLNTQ
Description: (§1) Samples were prepared for mass spectrometry analysis via a pull‐down of a biotinylated version of the SA‐E probe (SA‐Eb, 100 µM) incubated with 50% pooled human plasma at 37 °C for 2 h. Before incubation with the SA‐Eb‐plasma mixture, magnetic streptavidin‐coated beads (Dynabeads MyOne Streptavidin T1, Invitrogen, 65601) were washed with PBS (10 mM, pH 7.4) then blocked with 1% casein equal to the total initial volume of beads for 15 min at room temperature. After blocking, beads were washed again with PBS. Beads were then combined with SA‐Eb‐plasma solution, 25 µL beads to 200 µL mixture. This mixture was then incubated at room temperature for 30 min. After incubation, the remaining solution was removed, and the beads were washed five times with PBS. Bound SA‐Eb was eluted from beads in 30 µL 0.5% Triton X‐100 solution. Magnetic beads were then removed, and the elution was collected for analysis. For plasma control, the incubation with SA‐Eb step was skipped, and 50% plasma in PBS was incubated with beads and washed and eluted using the same method as the SA‐Eb‐plasma solution. The elution solutions were then analyzed by the Proteomics Shared Resource facility at Oregon Health & Science University (See Supporting Information for details).
(§2) Sample Preparation. Eluted plasma samples were dried down and stored at -80°C. Samples were thawed at room temperature for 10 min, and 75 µL of SDS protein extraction buffer (5% SDS, 50 mM […]; TEAB) was added to each sample. Samples were shaken in a Thermo mixer for 10 minutes at room temperature and centrifuged at 10,000 g for 5 min. Each sample was transferred from a 0.5 mL tube to a 1.5 mL LoBind centrifuge tube. Samples were reduced by adding 3.4 µL of 0.5 M dithiothreitol and incubated at 95 °C for 10 min. Samples were alkylated by the addition of 6.8 µL of 0.5 M iodoacetamide and were incubated at room temperature for 30 min in the dark. Samples were then acidified by the addition of 8.52 µL of 12% phosphoric acid, and 562 µL of SDS protein binding buffer (90% methanol, 100 mM TEAB, pH 7.51). Samples were transferred 165 µL at a time to S-trap micro columns (Protifi, Farmingdale, NY) and inserted into 1.5 mL of polypropylene tubes. Samples were centrifuged at 4,000 g for 3 min between each addition of the sample. S-trap columns were washed 6 times using 150 µL of 90% methanol containing 100 mM of TEAB followed by centrifugation at 4,000g for 3 min between each wash step. S-trap columns containing the bound sample proteins were transferred to 1.5 mL LoBind centrifuge tubes and 40 µL of 80 ng/µL sequencing grade modified trypsin (Pierce TM Trypsin Protease MS-Grade, XG348166) in 50 mM TEAB was added. S-trap columns were loosely capped, and digestion was performed at 37°C overnight in a humidified chamber.
(§3) After completion of digestion, peptides were eluted by sequential addition of 40 µL of TEAB, 40 µL of 0.2% aqueous formic acid, and 40 µl of 50% acetonitrile, 0.2% formic acid, with centrifugation at 4,000 g for 4 min between each addition of elution buffer. The elution fractions were combined and then dried by vacuum centrifugation. Samples were reconstituted by adding 20 µL of 5% formic acid, shaking at 37 °C, and spinning at 15,000 g for 5 min. The supernatant of each sample was transferred to an auto-sample vial.
(§4) Data analysis. Mass spectrometry data from all samples were processed using COMET/PAWS against Uniprot_Human_database. Comet (v. 2016.01, rev. 3)^8 was used to search MS2 Spectra against a January 2023 version of canonical FASTA protein database containing human uniprot sequences, and concatenated sequence-reversed entries to estimate error thresholds and 179 common contaminant sequences and their reversed forms. The database processing was performed using python scripts available at https://github.com/pwilmart/fasta_utilities.git and Comet results were processed using the PAW pipeline2 from https://github.com/pwilmart/PAW_pipeline.git.

[4] = target: T2, human plasma proteins (Homo sapiens, UniProt O95445); experiment: as above; type: binding
T2 construct: incubated with 50% pooled human plasma at 37 °C for 2 h; from tissue; host or cells: pooled human plasma (50%)
T2 sequence (O95445 whole entry): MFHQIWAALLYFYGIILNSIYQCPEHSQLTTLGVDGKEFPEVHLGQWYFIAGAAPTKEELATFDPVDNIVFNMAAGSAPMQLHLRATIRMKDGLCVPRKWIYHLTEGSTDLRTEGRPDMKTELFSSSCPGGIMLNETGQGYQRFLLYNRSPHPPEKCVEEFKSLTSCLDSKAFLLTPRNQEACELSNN
Description: as §1, §2, §3, §4

[5] = target: T3, human plasma proteins (Homo sapiens, UniProt P04114); experiment: as above; type: binding
T3 construct: incubated with 50% pooled human plasma at 37 °C for 2 h; from tissue; host or cells: pooled human plasma (50%)
T3 sequence (P04114 28-4563): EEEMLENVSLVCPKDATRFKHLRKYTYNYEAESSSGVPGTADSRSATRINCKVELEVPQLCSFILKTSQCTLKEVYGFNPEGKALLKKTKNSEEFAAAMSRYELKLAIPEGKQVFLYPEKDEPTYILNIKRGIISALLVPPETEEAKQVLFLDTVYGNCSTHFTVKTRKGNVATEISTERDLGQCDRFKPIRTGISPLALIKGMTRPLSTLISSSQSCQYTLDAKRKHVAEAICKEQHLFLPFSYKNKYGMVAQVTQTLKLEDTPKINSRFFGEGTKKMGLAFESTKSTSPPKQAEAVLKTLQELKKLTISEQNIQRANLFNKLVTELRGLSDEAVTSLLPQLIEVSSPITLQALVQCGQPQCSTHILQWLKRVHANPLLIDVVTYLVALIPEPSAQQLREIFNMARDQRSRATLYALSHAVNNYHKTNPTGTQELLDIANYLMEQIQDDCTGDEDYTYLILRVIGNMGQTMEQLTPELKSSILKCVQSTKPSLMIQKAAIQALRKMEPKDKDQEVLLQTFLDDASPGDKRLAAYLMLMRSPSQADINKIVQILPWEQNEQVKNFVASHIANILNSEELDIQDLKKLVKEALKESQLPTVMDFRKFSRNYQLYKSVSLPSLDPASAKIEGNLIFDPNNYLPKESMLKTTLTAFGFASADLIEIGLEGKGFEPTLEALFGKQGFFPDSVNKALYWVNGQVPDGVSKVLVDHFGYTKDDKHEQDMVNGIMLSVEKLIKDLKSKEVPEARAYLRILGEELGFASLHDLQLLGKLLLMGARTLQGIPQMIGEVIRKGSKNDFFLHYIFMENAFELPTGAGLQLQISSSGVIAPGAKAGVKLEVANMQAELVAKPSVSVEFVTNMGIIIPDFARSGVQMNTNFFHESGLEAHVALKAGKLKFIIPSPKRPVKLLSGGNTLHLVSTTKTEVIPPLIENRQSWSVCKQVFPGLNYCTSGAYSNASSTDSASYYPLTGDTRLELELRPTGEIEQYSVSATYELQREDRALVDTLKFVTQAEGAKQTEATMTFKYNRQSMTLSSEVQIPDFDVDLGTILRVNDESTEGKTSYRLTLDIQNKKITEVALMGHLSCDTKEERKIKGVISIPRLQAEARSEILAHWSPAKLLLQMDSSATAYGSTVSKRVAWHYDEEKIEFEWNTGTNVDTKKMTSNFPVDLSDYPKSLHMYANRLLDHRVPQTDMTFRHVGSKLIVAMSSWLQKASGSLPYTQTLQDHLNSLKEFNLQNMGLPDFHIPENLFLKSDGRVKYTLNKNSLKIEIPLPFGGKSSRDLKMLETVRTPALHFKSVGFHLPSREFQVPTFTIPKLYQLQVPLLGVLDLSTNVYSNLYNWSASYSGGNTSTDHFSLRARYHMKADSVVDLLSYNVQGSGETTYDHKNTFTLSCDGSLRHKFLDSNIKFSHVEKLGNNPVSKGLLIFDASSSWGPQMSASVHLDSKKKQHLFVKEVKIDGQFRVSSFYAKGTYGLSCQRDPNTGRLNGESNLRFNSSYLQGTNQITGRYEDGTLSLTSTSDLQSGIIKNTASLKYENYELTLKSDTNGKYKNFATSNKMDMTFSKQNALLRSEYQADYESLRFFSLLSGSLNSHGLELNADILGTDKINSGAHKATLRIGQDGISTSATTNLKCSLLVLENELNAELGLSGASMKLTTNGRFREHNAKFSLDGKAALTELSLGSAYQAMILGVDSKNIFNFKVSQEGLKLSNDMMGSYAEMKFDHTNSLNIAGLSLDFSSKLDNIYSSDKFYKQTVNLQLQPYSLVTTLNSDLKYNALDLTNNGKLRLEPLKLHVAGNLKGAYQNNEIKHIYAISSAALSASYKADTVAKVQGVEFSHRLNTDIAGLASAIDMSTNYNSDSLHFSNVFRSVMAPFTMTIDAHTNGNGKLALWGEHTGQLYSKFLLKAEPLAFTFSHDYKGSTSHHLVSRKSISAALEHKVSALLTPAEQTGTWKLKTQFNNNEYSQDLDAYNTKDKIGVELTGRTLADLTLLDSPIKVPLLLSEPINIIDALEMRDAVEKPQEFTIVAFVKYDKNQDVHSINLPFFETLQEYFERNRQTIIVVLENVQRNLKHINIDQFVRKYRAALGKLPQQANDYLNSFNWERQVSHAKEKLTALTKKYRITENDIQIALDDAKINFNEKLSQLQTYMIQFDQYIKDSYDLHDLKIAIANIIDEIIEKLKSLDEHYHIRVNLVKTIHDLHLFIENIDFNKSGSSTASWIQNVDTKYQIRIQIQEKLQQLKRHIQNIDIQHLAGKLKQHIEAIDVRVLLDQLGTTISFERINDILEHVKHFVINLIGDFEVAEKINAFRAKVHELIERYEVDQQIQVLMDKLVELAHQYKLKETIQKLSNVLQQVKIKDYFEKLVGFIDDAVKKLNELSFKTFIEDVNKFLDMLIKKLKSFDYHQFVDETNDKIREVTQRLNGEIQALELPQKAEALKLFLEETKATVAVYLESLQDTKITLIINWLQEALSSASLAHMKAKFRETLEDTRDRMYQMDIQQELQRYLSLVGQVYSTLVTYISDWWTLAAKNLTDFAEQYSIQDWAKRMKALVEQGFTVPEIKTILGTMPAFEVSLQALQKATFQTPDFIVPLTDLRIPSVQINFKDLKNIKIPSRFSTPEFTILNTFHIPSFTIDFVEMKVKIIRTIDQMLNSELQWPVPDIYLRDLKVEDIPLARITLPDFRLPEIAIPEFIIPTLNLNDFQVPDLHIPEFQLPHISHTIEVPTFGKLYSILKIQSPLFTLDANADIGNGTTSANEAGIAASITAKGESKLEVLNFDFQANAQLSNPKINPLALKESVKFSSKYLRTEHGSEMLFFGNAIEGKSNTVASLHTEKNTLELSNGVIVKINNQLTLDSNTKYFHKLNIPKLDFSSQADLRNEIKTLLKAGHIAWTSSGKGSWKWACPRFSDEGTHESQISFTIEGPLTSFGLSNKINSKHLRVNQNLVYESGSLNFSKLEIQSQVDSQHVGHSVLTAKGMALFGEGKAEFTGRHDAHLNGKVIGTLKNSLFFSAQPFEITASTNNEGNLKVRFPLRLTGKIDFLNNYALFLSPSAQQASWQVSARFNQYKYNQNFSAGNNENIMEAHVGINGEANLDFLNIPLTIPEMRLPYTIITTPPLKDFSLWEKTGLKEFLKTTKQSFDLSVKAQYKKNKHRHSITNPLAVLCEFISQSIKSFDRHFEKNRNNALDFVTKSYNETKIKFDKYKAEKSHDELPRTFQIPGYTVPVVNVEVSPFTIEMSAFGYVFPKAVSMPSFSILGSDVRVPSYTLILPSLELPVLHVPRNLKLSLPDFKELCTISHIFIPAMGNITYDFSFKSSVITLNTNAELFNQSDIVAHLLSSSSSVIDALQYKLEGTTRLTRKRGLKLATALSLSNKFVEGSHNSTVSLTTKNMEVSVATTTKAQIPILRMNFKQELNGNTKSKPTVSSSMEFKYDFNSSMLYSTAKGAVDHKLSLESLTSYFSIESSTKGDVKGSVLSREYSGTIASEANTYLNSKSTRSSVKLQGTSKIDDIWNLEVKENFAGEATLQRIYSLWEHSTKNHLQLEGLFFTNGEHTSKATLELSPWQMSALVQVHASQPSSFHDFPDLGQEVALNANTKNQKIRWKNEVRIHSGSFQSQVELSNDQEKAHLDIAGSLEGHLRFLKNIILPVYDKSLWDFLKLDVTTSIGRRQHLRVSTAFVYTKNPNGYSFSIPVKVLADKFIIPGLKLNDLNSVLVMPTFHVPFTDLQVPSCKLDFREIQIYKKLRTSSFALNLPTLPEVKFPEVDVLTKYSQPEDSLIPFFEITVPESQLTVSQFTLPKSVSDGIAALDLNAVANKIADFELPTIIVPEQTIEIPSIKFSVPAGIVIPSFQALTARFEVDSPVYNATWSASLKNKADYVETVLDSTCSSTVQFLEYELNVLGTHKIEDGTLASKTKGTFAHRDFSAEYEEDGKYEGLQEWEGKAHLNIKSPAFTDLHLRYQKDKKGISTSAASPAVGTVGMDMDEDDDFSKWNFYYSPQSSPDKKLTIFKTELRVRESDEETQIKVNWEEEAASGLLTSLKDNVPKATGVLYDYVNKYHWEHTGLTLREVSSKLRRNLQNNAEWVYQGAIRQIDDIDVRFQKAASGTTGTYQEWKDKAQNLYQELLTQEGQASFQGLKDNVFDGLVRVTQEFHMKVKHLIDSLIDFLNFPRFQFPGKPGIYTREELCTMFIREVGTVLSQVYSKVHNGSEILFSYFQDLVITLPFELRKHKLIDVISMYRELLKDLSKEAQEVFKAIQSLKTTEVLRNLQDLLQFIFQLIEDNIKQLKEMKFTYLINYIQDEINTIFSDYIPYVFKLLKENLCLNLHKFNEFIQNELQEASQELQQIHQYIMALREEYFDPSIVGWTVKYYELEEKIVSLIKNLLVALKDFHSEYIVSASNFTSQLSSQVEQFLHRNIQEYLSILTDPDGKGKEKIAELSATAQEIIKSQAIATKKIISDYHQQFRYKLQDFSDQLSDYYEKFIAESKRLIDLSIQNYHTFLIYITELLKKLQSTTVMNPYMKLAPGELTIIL
Description: as §1, §2, §3, §4

[6] = target: T4, human plasma proteins (Homo sapiens, UniProt P08519); experiment: as above; type: binding
T4 construct: incubated with 50% pooled human plasma at 37 °C for 2 h; from tissue; host or cells: pooled human plasma (50%)
Description: as §1, §2, §3, §4

[7] = target: T5, human plasma proteins (Homo sapiens, UniProt P05090); experiment: as above; type: binding
T5 construct: incubated with 50% pooled human plasma at 37 °C for 2 h; from tissue; host or cells: pooled human plasma (50%)
T5 sequence (P05090 21-189): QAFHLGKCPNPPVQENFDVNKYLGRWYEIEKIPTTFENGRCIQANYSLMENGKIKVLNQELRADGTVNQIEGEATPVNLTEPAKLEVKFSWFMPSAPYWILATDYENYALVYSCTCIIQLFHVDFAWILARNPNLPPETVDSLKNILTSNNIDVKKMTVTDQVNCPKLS
Description: as §1, §2, §3, §4

[8] = test system: LPs (HDL, LDL, VLDL) and albumin in pooled human plasma
Description: FPLC experiments were performed using SA‐E, SA‐K, or No‐SA conjugated with ICG or SA‐E conjugated with MMAE at a final concentration of 250 µM in filtered PBS (10 mM, pH 7.4) with or without human plasma or purified LPs or albumin. For analysis of SA‐E interactions with purified LPs, VLDL, LDL, HDL, and human serum albumin were diluted in filtered PBS to approximate concentrations found in 10% human plasma: 0.0025, 0.13, 0.05, and 5mg mL^−1, respectively. SA‐E was incubated with the purified LP/protein mixture for 30 min at 37 °C before injection. For analysis of plasma interactions, PAs or No‐SA were incubated in PBS containing 10% pooled human plasma for 30 min at 37 °C before injection. The total volume injected for all samples was 400 µL. All data was collected on an ÄKTA pure chromatography system using the following running conditions: size exclusion chromatography on a Superose 6 Increase 10/300 GL column with a column volume (CV) of 30 mL, pre‐column pressure limit of 5 MPa, delta‐column pressure limit of 2.6 MPa, flow rate of 0.75 mL min^−1, in 100% PBS. The sample running method included first an equilibration step before injection of the sample with 100% PBS for 0.5 CV, followed by sample application via 1 mL capillary loop in 100% PBS, and finished with a linear elution consisting of 2 CV collected in 1 mL fractions. The UV‐Vis detector wavelengths were 250, 280, and 700 nm to detect MMAE, all proteins/LPs, and ICG, respectively.

## CCCCCCCCCCCCCCCC(=O)NCC(=O)NCC(=O)NCC(=O)N[C@@H](Cc1c[nH]cn1)C(=O)N[C@@H](C)C(=O)N[C@@H](C)C(=O)N[C@@H](CC(N)=O)C(=O)NCC(=O)N[C@@H](CCC(=O)O)C(=O)N[C@@H](CCC(=O)O)C(=O)N[C@@H](CS)C(=O)N[C@@H](CCC(=O)O)C(=O)O [SA‐E] (Palmitoyl-GGGHAANGEECE-OH)
[1]
  fluorescence anisotropy of ICG in micelles: 0.123 ± 0.006
[2]
  size of spherical micelles (TEM): 5–10 nm
[3]; replicate 1
  Percentage, Apolipoprotein A-I: 15.7%
  Total Counts, Apolipoprotein A-I: 560
[3]; replicate 2
  Percentage, Apolipoprotein A-I: 21.1%
  Total Counts, Apolipoprotein A-I: 600
[4]; replicate 1
  Percentage, Apolipoprotein M: 0.3%
  Total Counts, Apolipoprotein M: 11
[4]; replicate 2
  Percentage, Apolipoprotein M: 0.4%
  Total Counts, Apolipoprotein M: 12
[5]; replicate 1
  Percentage, Apolipoprotein B-100: 4.7%
  Total Counts, Apolipoprotein B-100: 166
[5]; replicate 2
  Percentage, Apolipoprotein B-100: 6.0%
  Total Counts, Apolipoprotein B-100: 170
[6]; replicate 1
  Percentage, Apolipoprotein(a): 0.1%
  Total Counts, Apolipoprotein(a): 4
[6]; replicate 2
  Percentage, Apolipoprotein(a): 0.1%
  Total Counts, Apolipoprotein(a): 3
[7]; replicate 1
  Percentage, Apolipoprotein D: 0.6%
  Total Counts, Apolipoprotein D: 22
[7]; replicate 2
  Percentage, Apolipoprotein D: 0.8%
  Total Counts, Apolipoprotein D: 22
[8]
  amount bound to albumin, lower than bound to HDL: approximately two‐fold
